{"source": "patent US20160313301A1", "about": "“METHOD FOR PREDICTING ANTITUMOR EFFICACY OF HSP90 INHIBITOR IN CANCER TREATMENT” (NIPPON KAYAKU KABUSHIKI KAISHA, priority 2013, published 2016)", "system": "client proteins and HSP90-related proteins in SK-OV-3 tumor", "assay": "Immunoblot: change in expression amount of proteins in SK-OV-3 tumor after administration", "assay_type": "in vivo, human", "details": "40 mg/kg tail vein", "description": "Thirty micrograms of total protein was subjected to electrophoresis in 8% acrylamide gel. Then, the protein was transferred onto a PVDF membrane at a voltage of 100 V for 60 min at 4 °C. The PVDF membrane on which the protein had been transferred was blocked in TBS-Tween (0.1%) containing 5% milk at normal temperature for 60 min, followed by incubating with each of primary antibodies described below overnight at 4 °C. • Primary antibody (supplier, product number, dilution ratio, exposure time) • EGFR (Santa Cruz, sc-003, 1:500, 1 min) • HER2 (Santa Cruz, sc-284, 1:2000, 5 sec) • HER3 (Santa Cruz, sc-285, 1:400, 1 min) • Met (Santa Cruz, sc-161, 1:500, 5 min) • IGF-1R (Cell Signaling, #3027, 1:500, 15 sec) • Raf-1 (Santa Cruz, sc-133, 1:300, 5 min) • Stat3 (BD Transduction Laboratory, 610189, 1:500, 15 sec) • pAkt (Cell Signaling, #4058S, 1:500, 1 min) • Akt (Cell Signaling, #4691S, 1:2000, 15 sec) • pERK (Santa Cruz, sc-16982-R, 1:500, 1 min) • ERK (Invitrogen, 44-654G, 1:1000, 15 sec) • mTOR (Cell Signaling, #2983S, 1:500, 15 sec) • MEK (Cell Signaling, #9122S, 1:500, 1 min) • HSP90 (Enzo Life Science, SPA-830, 1:500, 15 sec) • HSP70 (Enzo Life Science, SPA-810, 1:2000, 15 sec) • Actin (Santa Cruz, sc-8432/HRP, 1:300, 5 min)\nAfter incubation, the blot membrane was washed with TBS-Tween (0.1%) at normal temperature for 10 min three times to thereby remove excessive primary antibodies. Then, the membrane was incubated with an appropriate secondary antibody (anti-rabbit IgG HRP conjugate or anti-mouse IgG HRP conjugate) at normal temperature for 60 min. The membrane was washed with TBS-Tween (0.1%) at normal temperature for 10 min three times to thereby remove excessive secondary antibodies. Then, the membrane was incubated with ECL Western Blotting Detection Reagents (GE Healthcare) for 2 min, followed by exposing to an X-ray film. Thus, the signal of the intended protein was detected.\nTumors to be transplanted derived from human ovarian cancer cell lines SK-OV-3 and TOV-21G were prepared in the same manner as in Example 1.\nProtein extraction liquid was obtained from each tumor as follows. The human ovarian cancer tumors maintained by passage in SCID mice were transplanted subcutaneously to the dorsums of SCID mice with trocars. When the tumor volume of each tumor reached about 300 mm^3, the triazole (A-1) synthesized as the HSP90 inhibitor in Synthetic Example 1 was administered into a tail vein of each of the mice at a dose of 40 mg/kg in the same manner as in Example 1. The tumors were removed before and 4 and 24 hours after administration. At each time point, the tumors were removed from three mice for the SK-OV-3 tumor and two mice for the TOV-21G tumor. Protein extraction liquids were obtained in the same manner as in Example 1. The total protein amount in each of the extraction liquids was quantified in the same manner as in Example 1.\nThe immunoblot method was used to verify change in expression amounts of the client proteins and the HSP90-related proteins in the SK-OV-3 and TOV-21G tumors to which the triazole compound (A-1) had been administered, in the same manner as in Example 1. The types and dilution ratios of primary antibodies and secondary antibodies used were the same as in Example 1.", "key": {"[1]": {"details": "SK-OV-3 tumor after administration"}, "[2]": {"details": "SK-OV-3 tumor, 4 hours after administration"}}, "data": [{"smiles": "CC(C)c1cc(-c2n[nH]c(=O)n2-c2ccc(CN3CCN(C)CC3)cc2)c(O)cc1O", "note": "[A-1, 5-(2,4-dihydroxy-5-isopropyl-phenyl)-4-[4-(4-methyl-piperazin-1-ylmethyl)-phenyl]-2,4-dihydro-[1,2,4]triazol-3-one]", "values": [{"measurement": "expression amount of total Akt", "setting": "[1]", "result": "not changed"}, {"measurement": "expression amount of total ERK", "setting": "[1]", "result": "not changed"}, {"measurement": "expression level of EGFR", "setting": "[2]", "result": "significantly decreased"}, {"measurement": "expression level of IGF-1R", "setting": "[2]", "result": "significantly decreased"}, {"measurement": "expression level of Met", "setting": "[2]", "result": "significantly decreased"}, {"measurement": "expression level of mTOR", "setting": "[2]", "result": "significantly decreased"}, {"measurement": "expression level of pAkt", "setting": "[2]", "result": "significantly decreased"}, {"measurement": "expression level of pERK", "setting": "[2]", "result": "significantly decreased"}]}]}
